Data from DBAASP.
Converted amounts (≈) assume the structure as drawn. “And” between values parts separate entries of the source, which are not always exact repeats. Equal values may be shown once. Each block holds one compound with its values, some of them ahead of it.

Columns and labels:
Assay in all cases: ≥ marks a high value that may be exact or a test limit, other limits are often not marked, values filed in µg/mL are converted to µM
[1] = system: Burkholderia thailandensis
[2] = system: Bacillus subtilis ATCC 9372
[3] = system: Bacillus anthracis Sterne 34F2
[4] = system: Micrococcus luteus ATCC 10240
Escherichia coli BL21AI = system: Escherichia coli BL21AI
[5] = system: Staphylococcus aureus C623
[6] = system: Pseudomonas aeruginosa LES400
[7] = system: Escherichia coli ESBL 63103
[8] = system: Pseudomonas aeruginosa H103
[9] = system: Enterococcus faecium mic80
Candida albicans C627 = system: Candida albicans C627
[10] = system: Pseudomonas aeruginosa 213
[11] = system: Staphylococcus aureus ATCC 25923
[12] = system: Candida albicans ATCC 2002
[13] = system: Escherichia coli ATCC 25922
[14] = system: Staphylococcus aureus ATCC 2592
Bacillus cereus = system: Bacillus cereus
Shigella dysenteriae = system: Shigella dysenteriae
Pseudomonas aeruginosa = system: Pseudomonas aeruginosa
[15] = system: Mycobacterium tuberculosis H37Rv
[16] = system: Salmonella enterica subsp. enterica serovar Enteritidis
[17] = system: Staphylococcus aureus ATCC 43300
[18] = system: Staphylococcus aureus ATCC 29213
Yersinia enterocolitica = system: Yersinia enterocolitica
Salmonella sp. = system: Salmonella sp.
Escherichia coli = system: Escherichia coli
Escherichia coli SBS 363 = system: Escherichia coli SBS 363
Candida albicans MDM8 = system: Candida albicans MDM8
Micrococcus luteus A270 = system: Micrococcus luteus A270
[19] = system: Staphylococcus aureus SAP 0017

Compound: CC[C@H](C)[C@H](NC(=O)CNC(=O)[C@H](CO)NC(=O)[C@H](CC(C)C)NC(=O)[C@@H](NC(=O)[C@H](CCCN=C(N)N)NC(=O)CNC(=O)[C@@H](NC(=O)[C@H](CC(C)C)NC(=O)[C@@H]1CCCN1C(=O)[C@H](CC(C)C)NC(=O)[C@@H](N)Cc1ccccc1)[C@@H](C)CC)C(C)C)C(=O)N[C@@H](CC(C)C)C(=O)O [FLPLIGRVLSGIL]
MIC [1]: ≥ 50 µM | MIC [2]: ≥ 100 µM | MIC [3]: ≥ 100 µM

MIC [4]: ≥ 61.8 µM | MIC (Escherichia coli BL21AI): ≥ 61.8 µM
Compound: CC[C@H](C)[C@H](NC(=O)[C@H](Cc1ccc(O)cc1)NC(=O)[C@@H](NC(=O)[C@@H]1CCCN1C(=O)[C@H](CCCN=C(N)N)NC(=O)[C@H](CC(N)=O)NC(=O)[C@H](CC(N)=O)NC(=O)CN)C(C)C)C(=O)N1CCC[C@H]1C(=O)N[C@@H](CCC(N)=O)C(=O)N1CCC[C@H]1C(=O)N[C@@H](CCCN=C(N)N)C(=O)N1CCC[C@H]1C(=O)N1CCC[C@H]1C(=O)N[C@@H](Cc1cnc[nH]1)C(=O)N1CCC[C@H]1C(=O)N[C@@H](C)C(=O)N[C@@H](CC(C)C)C(N)=O [GNNRPVYIPQPRPPHPAL]

MIC [5]: 22.8 µM (≈ 32 µg/mL) | MIC [6]: ≥ 91.1 µM | MIC [7]: ≥ 45.5 µM | MIC [8]: ≥ 91.1 µM | MIC [9]: ≥ 45.5 µM | MIC (Candida albicans C627): ≥ 91.1 µM | MIC [10]: ≥ 91.1 µM | MIC [11]: 22.8 µM (≈ 32 µg/mL)
Compound: CC[C@H](C)[C@H](N)C(=O)N[C@@H](CCCCN)C(=O)N[C@@H](CCCCN)C(=O)N[C@@H](CCCN=C(N)N)C(=O)N[C@@H](Cc1c[nH]c2ccccc12)C(=O)N[C@@H](Cc1c[nH]c2ccccc12)C(=O)N[C@@H](Cc1c[nH]c2ccccc12)C(=O)N[C@@H](Cc1ccccc1)C(=O)N[C@@H](CCCN=C(N)N)C(=O)O [IKKRWWWFR]

Compound: CC[C@H](C)[C@H](NC(=O)[C@H](CCCCN)NC(=O)[C@H](C)NC(=O)CNC(=O)[C@@H](NC(=O)[C@H](CCCCN)NC(=O)[C@@H](NC(=O)[C@H](CCCCN)NC(=O)[C@H](C)NC(=O)CNC(=O)[C@@H](NC(=O)[C@H](CCCCN)NC(=O)[C@@H](NC(=O)[C@H](CCCCN)NC(=O)[C@H](C)NC(=O)CNC(=O)[C@@H](NC(=O)[C@@H](N)CCCCN)[C@@H](C)CC)[C@@H](C)CC)[C@@H](C)CC)[C@@H](C)CC)[C@@H](C)CC)C(=O)O [KIGAKIKIGAKIKIGAKI]
MIC [1]: ≥ 50 µM | MIC [2]: 31 µM (≈ 57.4 µg/mL) | MIC [3]: ≥ 100 µM

Compound: CC[C@H](C)[C@H](NC(=O)[C@H](Cc1ccc(O)cc1)NC(=O)CNC(=O)[C@@H](NC(=O)[C@@H](NC(=O)CNC(=O)[C@@H](NC(=O)[C@H](C)NC(=O)[C@H](C)NC(=O)CNC(=O)CNC(=O)[C@@H](N)CC(C)C)[C@@H](C)O)C(C)C)[C@@H](C)CC)C(=O)N[C@@H](CO)C(=O)N[C@@H](CC(N)=O)C(=O)N[C@@H](CCC(N)=O)C(=O)N[C@H](C(=O)N[C@@H](CS)C(=O)N1CCC[C@H]1C(=O)N[C@H](C(=O)N[C@H](C(=O)N[C@@H](C)C(=O)N[C@@H](CS)C(=O)N[C@H](C(=O)N[C@@H](CCCN=C(N)N)C(=O)N[C@@H](C)C(=O)N[C@@H](CS)C(=O)O)[C@@H](C)O)[C@@H](C)O)[C@@H](C)O)[C@@H](C)O [LGGAATGVIGYISNQTCPTTACTRAC]
MIC [1]: ≥ 50 µM | MIC [2]: ≥ 100 µM | MIC [3]: ≥ 100 µM

MIC [12]: 3.08 µM (≈ 6.24 µg/mL) | MIC [13]: 24.7 µM (≈ 50 µg/mL) | MIC [14]: 6.17 µM (≈ 12.5 µg/mL) | MIC (Bacillus cereus): 6.17 µM (≈ 12.5 µg/mL) | MIC (Shigella dysenteriae): 3.08 µM (≈ 6.24 µg/mL) | MIC (Pseudomonas aeruginosa): 6.17 µM (≈ 12.5 µg/mL)
Compound: CSCC[C@@H]1NC(=O)[C@H](CC(C)C)NC(=O)[C@H](C)NC(=O)[C@H](CCCN=C(N)N)NC(=O)[C@H](CC(N)=O)NC(=O)[C@@H](NC(=O)[C@H](CCCCN)NC(=O)[C@H](CC(N)=O)NC(=O)[C@H](CCCN=C(N)N)NC(=O)[C@@H]2CCCN2C(=O)[C@H](CCSC)NC(=O)[C@H](CO)NC(=O)[C@H](CC(C)C)NC(=O)[C@H](C)NC(=O)[C@@H](N)CC(N)=O)CSSC[C@@H](C(=O)N[C@@H](Cc2ccccc2)C(=O)NCC(=O)O)NC1=O [NALSMPRNKCNRALMCFG]

MIC [15]: ≥ 60.7 µM
Compound: CC[C@H](C)[C@H](NC(=O)[C@H](CC(N)=O)NC(=O)[C@H](C)NC(=O)[C@H](CCCN=C(N)N)NC(=O)[C@H](Cc1ccccc1)NC(=O)[C@H](CCC(=O)O)NC(=O)[C@H](Cc1ccccc1)NC(=O)[C@H](Cc1ccc(O)cc1)NC(=O)[C@H](Cc1ccccc1)NC(=O)CNC(=O)[C@@H]1CCCN1C(=O)[C@@H]1CCCN1C(=O)[C@@H](N)CCCN=C(N)N)C(=O)N[C@H](C(=O)N1CCC[C@H]1C(=O)N[C@@H](Cc1ccc(O)cc1)C(=O)N[C@@H](CC(C)C)C(=O)NCC(=O)N[C@@H](CCCN=C(N)N)C(=O)N[C@@H](CCCN=C(N)N)C(=O)O)[C@@H](C)CC [RPPGFYFEFRANIIPYLGRR]

MIC [16]: ≥ 40.4 µM | MIC [17]: > 40.4 µM | MIC [18]: > 40.4 µM | MIC [13]: > 40.4 µM | MIC (Yersinia enterocolitica): ≥ 40.4 µM | MIC (Salmonella sp.): ≥ 40.4 µM | MIC (Escherichia coli): > 40.4 µM
Compound: CC[C@H](C)[C@H](NC(=O)[C@H](CCC(N)=O)NC(=O)[C@@H](N)CCCN=C(N)N)C(=O)N[C@@H](CCCN=C(N)N)C(=O)N[C@@H](CCCN=C(N)N)C(=O)N[C@H](C(=O)N[C@H](C(=O)N[C@@H](CCC(N)=O)C(=O)N[C@@H](CCCN=C(N)N)C(N)=O)[C@@H](C)CC)[C@@H](C)CC [RQIRRIIQR]

MIC [16]: ≥ 36 µM | MIC [17]: > 36 µM | MIC [18]: > 36 µM | MIC [13]: > 36 µM | MIC (Yersinia enterocolitica): ≥ 36 µM | MIC (Salmonella sp.): ≥ 36 µM | MIC (Escherichia coli): > 36 µM
Compound: CC[C@H](C)[C@H](NC(=O)[C@H](CCC(N)=O)NC(=O)[C@@H](N)CCCN=C(N)N)C(=O)N[C@@H](CCCN=C(N)N)C(=O)N[C@@H](CCCN=C(N)N)C(=O)N[C@@H](Cc1c[nH]c2ccccc12)C(=O)N[C@@H](Cc1c[nH]c2ccccc12)C(=O)N[C@@H](CCSC)C(=O)N[C@@H](CCCN=C(N)N)C(N)=O [RQIRRWWMR]

MIC [5]: 2.77 µM (≈ 4 µg/mL) | MIC [6]: 11.1 µM (≈ 16 µg/mL) | MIC [7]: 11.1 µM (≈ 16 µg/mL) | MIC [8]: 1.38 µM (≈ 2 µg/mL) | MIC [9]: 11.1 µM (≈ 16 µg/mL) | MIC (Candida albicans C627): 2.77 µM (≈ 4 µg/mL) | MIC [10]: 11.1 µM (≈ 16 µg/mL) | MIC [11]: 2.77 µM (≈ 4 µg/mL)
Compound: CC(C)C[C@H](NC(=O)[C@H](Cc1c[nH]c2ccccc12)NC(=O)[C@H](CCCN=C(N)N)NC(=O)[C@H](Cc1c[nH]c2ccccc12)NC(=O)[C@H](Cc1c[nH]c2ccccc12)NC(=O)[C@H](CCCCN)NC(=O)[C@H](CCCCN)NC(=O)[C@H](Cc1c[nH]c2ccccc12)NC(=O)[C@@H](N)CCCN=C(N)N)C(=O)O [RWKKWWRWL]

MIC (Escherichia coli SBS 363): 1.56 µM (≈ 2.01 µg/mL) | MIC (Candida albicans MDM8): 0.78 µM (≈ 1.01 µg/mL) | MIC (Micrococcus luteus A270): 0.78 µM (≈ 1.01 µg/mL)
Compound: CC[C@H](C)[C@H](NC(=O)[C@H](CC(C)C)NC(=O)[C@H](CO)NC(=O)[C@H](CC(C)C)NC(=O)[C@H](Cc1ccccc1)NC(=O)[C@@H](N)CO)C(=O)N[C@@H](CCCN=C(N)N)C(=O)N[C@@H](CCCCN)C(=O)N[C@@H](CC(C)C)C(=O)N[C@H](C(=O)N[C@H](C(N)=O)[C@@H](C)O)[C@@H](C)CC [SFLSLIRKLIT]

MIC [19]: 1 µM and 2 µM
Compound: CC[C@H](C)[C@H](NC(=O)[C@H](C)NC(=O)[C@H](CCCN=C(N)N)NC(=O)[C@H](CC(C)C)NC(=O)[C@@H](NC(=O)[C@H](CCCCN)NC(=O)[C@H](CC(C)C)NC(=O)[C@H](CC(C)C)NC(=O)[C@H](Cc1c[nH]c2ccccc12)NC(=O)[C@H](CCCCN)NC(=O)[C@@H](NC(=O)[C@@H](N)C(C)C)[C@@H](C)CC)[C@@H](C)CC)C(N)=O [VIKWLLKILRAI]
